From US5073563A, “Alkoxycoumarins substituted by a heterocyclic radical, their preparation and therapeutic agents containing these compounds” (BASF Aktiengesellschaft, priority 1988, dated 1991)

Tests used:
MAO B = target: T1, MAO B (Rattus norvegicus, UniProt P19643); assay: MAO B inhibition in dilute rat brain homogenate (14C substrate, 20 min at 37° C); assay type: biochemical; settings: for IC50 ratio MAO A / MAO B: quotient of IC50 MAO A and IC50 MAO B (selectivity for MAO B), 20 min; for IC50: rat brain homogenate, 14C-phenylethylamine or 14C-tryptamine 0.4 μmol/l, 20 minutes at 37° C, logit-log regression
T1 construct: determined in dilute rat brain homogenate; from tissue; host or cells: rat brain homogenate
T1 sequence (P19643 1-520): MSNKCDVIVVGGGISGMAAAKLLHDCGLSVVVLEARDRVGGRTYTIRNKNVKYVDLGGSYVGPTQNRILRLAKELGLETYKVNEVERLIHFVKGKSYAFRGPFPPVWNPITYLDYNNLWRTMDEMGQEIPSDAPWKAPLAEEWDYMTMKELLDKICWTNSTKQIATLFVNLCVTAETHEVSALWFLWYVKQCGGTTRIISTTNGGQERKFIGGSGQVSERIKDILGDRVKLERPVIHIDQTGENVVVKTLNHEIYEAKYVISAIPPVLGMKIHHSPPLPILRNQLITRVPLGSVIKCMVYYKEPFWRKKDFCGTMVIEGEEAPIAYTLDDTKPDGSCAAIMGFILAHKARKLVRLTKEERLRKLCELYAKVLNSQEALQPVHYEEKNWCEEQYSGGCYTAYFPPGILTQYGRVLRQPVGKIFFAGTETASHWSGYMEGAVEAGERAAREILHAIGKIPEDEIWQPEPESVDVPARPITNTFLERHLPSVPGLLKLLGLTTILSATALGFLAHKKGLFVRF
Procedure: (§1) The MAO-inhibiting activity of the novel compounds can be determined using standard methods. […] The mixture was incubated for 20 minutes at 37° C.
(§2) The blank value was determined in similar mixtures with an incubation time of t=0 min.
(§3) From the inhibitory values determined at the various inhibitor concentrations against a control, the mean inhibitory concentration (IC50) was calculated by linear regression following logit-log transformation.

MAO A = target: T2, MAO A (Rattus norvegicus, UniProt P21396); assay: MAO A inhibition in dilute rat brain homogenate (14C substrate, 20 min at 37° C); assay type: biochemical; settings: 14C-phenylethylamine or 14C-tryptamine 0.4 μmol/l, logit-log regression
T2 construct: determined in dilute rat brain homogenate; from tissue; host or cells: rat brain homogenate
T2 sequence (P21396 1-526): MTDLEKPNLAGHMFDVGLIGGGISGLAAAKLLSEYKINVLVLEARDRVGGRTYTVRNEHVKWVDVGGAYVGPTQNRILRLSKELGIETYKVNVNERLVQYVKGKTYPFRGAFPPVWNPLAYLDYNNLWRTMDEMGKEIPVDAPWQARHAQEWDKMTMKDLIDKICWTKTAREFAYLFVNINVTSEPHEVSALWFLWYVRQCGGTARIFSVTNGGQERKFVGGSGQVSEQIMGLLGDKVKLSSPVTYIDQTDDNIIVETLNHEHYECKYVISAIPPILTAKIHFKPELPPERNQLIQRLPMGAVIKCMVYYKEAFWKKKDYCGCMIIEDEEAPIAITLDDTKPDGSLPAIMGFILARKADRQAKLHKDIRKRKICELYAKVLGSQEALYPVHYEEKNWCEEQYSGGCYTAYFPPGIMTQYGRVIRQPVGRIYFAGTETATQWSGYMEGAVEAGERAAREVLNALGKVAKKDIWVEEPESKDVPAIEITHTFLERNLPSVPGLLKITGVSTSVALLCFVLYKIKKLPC
Procedure: as §1, §2, §3

Row | Compound | IC50 ratio MAO A / MAO B (MAO B) | IC50 (MAO A) [nM] | IC50 (MAO B) [nM]
1 | Cc1nnc(COc2ccc3c(C)c(C)c(=O)oc3c2)o1 [Example 1, 3,4-Dimethyl-7-(2-methyl-1,3,4-oxadiazol-5-yl)-methoxycoumarin] | 370 |  | 
2 | Cc1nnc(COc2ccc3c(C)c(C)c(=O)oc3c2)s1 [Example 2, 3,4-Dimethyl-7-(2-methyl-1,3,4-thiadiazol-5-yl)-methoxycoumarin] | 1200 | 3600 | 3
3 | Cc1cc(COc2ccc3c(C)c(C)c(=O)oc3c2)on1 [Example 3, 3,4-Dimethyl-7-(3-methylisoxazol-5-yl)-methoxycoumarin] | 710 | 1500 | 2.1
4 | CCCc1cc(COc2ccc3c(C)c(C)c(=O)oc3c2)on1 [Example 4, 3,4-Dimethyl-7-(3-n-propylisoxazol-5-yl)-methoxycoumarin] | ~ 5900 | ~10000 | 1.7
5 | COCc1cc(COc2ccc3c(C)c(C)c(=O)oc3c2)on1 [Example 6, 7-(3-Methoxymethylisoxazol-5-yl)-methoxy-3,4-dimethylcoumarin] | ~ 2200 | ~10000 | 4.6
6 | CCc1nnc(COc2ccc3c(C)c(C)c(=O)oc3c2)o1 [Example 7, 7-(2-Ethyl-1,3,4-oxadiazol-5-yl)-methoxy-3,4-dimethylcoumarin] | ~ 900 | ~10000 | 11
7 | Cc1c(Cl)c(=O)oc2cc(OCc3csc(C4CC4)n3)c(Cl)cc12 [Example 10, 3,6-Dichloro-4-methyl-7-(2-cyclopropylthiazol-4-yl)-methoxycoumarin] | > 4500 | > 10000 | 2.2
8 | Cc1nnc(COc2ccc3cc(C)c(=O)oc3c2)s1 [Example 13, 3-Methyl-7-(2-methyl-1,3,4-thiadiazol-5-yl)-methoxycoumarin] | > 667 | > 10000 | 15
9 | Cc1c(C)c2ccc(OCC3COc4ccccc4O3)cc2oc1=O (stereo not drawn) [Example 21, 7-(Benzodioxan-2-yl)-methoxy-3,4-dimethylcoumarin] | ~ 1300 | ~10000 | 7.7
10 | Cc1c(C)c2ccc(OCc3coc(Cc4ccccc4)c3)cc2oc1=O [Example 22, 7-(2-Benzylfuran-4-yl)-methoxy-3,4-dimethylcoumarin] | > 6250 | > 10000 | 1.6
11 | Cc1nc(COc2ccc3c(C)c(C)c(=O)oc3c2)cs1 [Example 24, 3,4-Dimethyl-7-(2-methylthiazol-4-yl)-methoxycoumarin] | ~ 3300 | ~10000 | 3
12 | Cc1c(C)c2ccc(OCc3coc(Cc4cccc(Cl)c4)c3)cc2oc1=O [Example 25, 7-[2-(3-Chlorobenzyl)-furan-4-yl]-methoxy-3,4-dimethylcoumarin] | > 590 | > 10000 | 17
13 | Cc1c(C)c2ccc(OCc3nc(C(C)C)no3)cc2oc1=O [Example 26, 7-(3-Iospropyl-1,2,4-oxadiazol-5-yl)-methoxy-3,4-dimethylcoumarin] | > 7700 |  | 1.3
14 | Cc1c(C)c2ccc(OCc3cc(C(C)C)n(C)n3)cc2oc1=O [Example 29, 7-(5-Isopropyl-1-methylpyrazol-3-yl)-methoxy-3,4-dimethylcoumarin] | > 4500 | > 10000 | 2.2
15 | Cc1nnc(COc2ccc3c(C)c(Cl)c(=O)oc3c2)s1 [Example 30, 3-Chloro-4-methyl-7-(2-methyl-1,3,4-thiadiazol-5-yl)-methoxycoumarin] | > 1700 | > 10000 | 5.7
16 | Cc1nnc(COc2ccc3c4c(c(=O)oc3c2)CCCC4)s1 [Example 32, 3,4-Tetramethylen-7-(2-methyl-1,3,4-thiadiazol-5-yl)-methoxycoumarin] | > 1400 | > 10000 | 7.1

Row | Compound | IC50 ratio MAO A / MAO B (MAO B) | IC50 (MAO A) [nM] | IC50 (MAO B) [nM]
17 | Cc1c(C)c2ccc(OCc3cc(C(C)C)no3)cc2oc1=O [Example 33, 7-(3-Isopropylisoxazol-5-yl)-methoxy-3,4-dimethylcoumarin] | ~ 8200 | ~6000 | 0.73
18 | Cc1c(C)c2ccc(OCc3cc(CC(C)C)no3)cc2oc1=O [Example 34, 7-(3-Isobutylisoxazol-5-yl)-methoxy-3,4-dimethylcoumarin] | ~ 4500 | ~10000 | 2.2
19 | Cc1c(C)c2ccc(OCc3cc(C(C)(C)C)no3)cc2oc1=O [Example 35, 7-(3-tert-Butylisoxazol-5-yl)-methoxy-3,4-dimethylcoumarin] | > 11000 | > 10000 | 0.92
20 | Cc1ccc(COc2ccc3c(C)c(C)c(=O)oc3c2)s1 [Example 42, 3,4-Dimethyl-7-(2-methylthiophen-5-yl)-methoxycoumarin] | 680 | 350 | 0.51
21 | Cc1c(C)c2ccc(OCc3nc(C4CC4)no3)cc2oc1=O [Example 44, 3,4-Dimethyl-7-(3-cyclopropyl-1,2,4-oxadiazol-5-yl)-methoxycoumarin] | ~ 5800 | ~7000 | 1.2
22 | Cc1ccsc1COc1ccc2c(C)c(C)c(=O)oc2c1 [Example 45, 3,4-Dimethyl-7-(3-methylthiophen-2-yl)-methoxycoumarin] | 450 | 230 | 0.51
23 | Cc1noc(COc2ccc3c(C)c(C)c(=O)oc3c2)n1 [Example 50, 3,4-Dimethyl-7-(3-methyl-1,2,4-oxadiazol-5-yl)-methoxycoumarin] | ~ 930 | ~4000 | 4.3
24 | Cc1c(C)c2ccc(OCc3cc(C4CC4)no3)cc2oc1=O [Example 51, 7-(3-Cyclopropylisoxazol-5-yl)-methoxy-3,4-dimethylcoumarin] | > 12500 | > 10000 | 0.8
25 | Cc1c(Cl)c(=O)oc2cc(OCc3cc(C(C)C)n(C)n3)ccc12 [Example 54, 3-Chloro-7-(5-isopropyl-1-methylpyrazol-3yl)-methoxy-4-methylcoumarin] | > 6700 | > 10000 | 1.5
26 | CC(C)c1cc(COc2ccc3c4c(c(=O)oc3c2)CCCC4)nn1C [Example 55, 7-(5-Isopropyl-1-methylpyrazol-3-yl)-methoxy-3,4-tetramethylenecoumarin] | > 1000 | > 10000 | 10
27 | Cc1c(C)c2ccc(OCc3cc(C4CC4)on3)cc2oc1=O [Example 58, 7-(5-Cyclopropylisoxazol-3-yl)-methoxy-3,4-dimethylcoumarin] | ~ 8300 | ~7000 | 0.84
28 | Cc1c(C)c2ccc(OCc3cc(C4CC4)n(C)n3)cc2oc1=O [Example 61, 7-(5-Cyclopropyl-1-methylpyrazol-3-yl)-methoxy-3,4-dimethylcoumarin] | > 1100 | > 10000 | 1.9
29 | CCOc1nnc(COc2ccc3c(C)c(C)c(=O)oc3c2)s1 [Example 62, 7-(2-Ethoxy-1,3,4-thiadiazol-5-yl)-methoxy-3,4-dimethylcoumarin] | > 1300 | > 10000 | 7.5
30 | Cc1nnc(COc2cc3oc(=O)c(C)c(C)c3cc2Br)s1 [Example 67, 6-Bromo-3,4-dimethyl-7-(2methyl-1,3,4-thiadiazol-5-yl)-methoxycoumarin] | > 9100 | > 10000 | 1.1
31 | Cc1c(C)c2ccc(OCc3cc(C4CCC4)no3)cc2oc1=O [Example 68, 7-(3-Cyclobutylisoxazol-5-yl)-methoxy-3,4-dimethylcoumarin] | > 13000 | > 10000 | 0.77
